The text below walks through data of US10259776B2, “Branched 3-phenylpropionic acid derivatives and their use” (BAYER INTELLECTUAL PROPERTY GMBH, priority 2011, dated 2019).

Assay [1] concerns the target sGC in the CHO reporter cell (Rattus norvegicus (Rat), UniProt P20595). The assay is described as follows: Action at a recombinant guanylate cyclase reporter cell line. Format: cell-based. As to conditions: CHO reporter cell in vitro. The protocol: The cellular action of the compounds according to the invention is determined at a recombinant guanylate cyclase reporter cell line, as described in F. Wunder et al., Anal. Biochem. 339, 104-112 (2005).

Assay [2] deals with Haem-free sGC (recombinant soluble guanylate cyclase) (Rattus norvegicus (Rat), UniProt P20595). Put plainly: Stimulation of recombinant soluble guanylate cyclase (sGC) in vitro, haem-free enzyme. Format: biochemical. As to conditions: haem-free (0.5% Tween 20), n = 5. How it is done: Investigations on the stimulation of recombinant soluble guanylate cyclase (sGC) by the compounds according to the invention with and without sodium nitroprusside, and with and without the haem-dependent sGC inhibitor 1H-1,2,4-oxadiazolo[4,3a]quinoxalin-1-one (ODQ), are carried out by the method described in detail in the following reference: M. Hoenicka, E. M. Becker, H. Apeler, T. Sirichoke, H. Schroeder, R. Gerzer and J.-P. Stasch, “Purified soluble guanylyl cyclase expressed in a baculovirus/Sf9 system: Stimulation by YC-1, nitric oxide, and carbon oxide”, J. Mol. Med. 77 (1999), 14-23. The haem-free guanylate cyclase is obtained by adding Tween 20 to the sample buffer (0.5% in the final concentration).
(§1) The activation of sGC by a test substance is reported as x-fold stimulation of the basal activity.

The target in assay [3] is Haem-containing sGC (recombinant soluble guanylate cyclase) (Rattus norvegicus (Rat), UniProt P20595). The assay is described as follows: Stimulation of recombinant soluble guanylate cyclase (sGC) in vitro, haem-containing enzyme. The assay is classed as biochemical. As to conditions: for Stimulation (x-fold) of recombinant sGC, haem-containing sGC, basal: n = 5.
Description: Hoenicka, E. M. Becker, H. Apeler, T. Sirichoke, H. Schroeder, R. Gerzer and J.-P. Stasch, “Purified soluble guanylyl cyclase expressed in a baculovirus/Sf9 system: Stimulation by YC-1, nitric oxide, and carbon oxide”, J. Mol. Med. 77 (1999), 14-23. The haem-free guanylate cyclase is obtained by adding Tween 20 to the sample buffer (0.5% in the final concentration).
as §1

The target in assay [4] is soluble guanylate cyclase (sGC) (Rattus norvegicus (Rat), UniProt P20595). Put plainly: Stimulation of sGC enzyme activity (PPi detection, luciferase). The assay is classed as biochemical. Particulars: sGC enzyme in vitro. The protocol:
Soluble guanylate cyclase (sGC) converts on stimulation GTP into cGMP and pyrophosphate (PPi). PPi is detected with the aid of the assay described below. The signal produced in the assay increases as the reaction progresses and serves as a measure of the sGC enzyme activity under the given stimulation.
To carry out the assay, 29 μl of enzyme solution [0-10 nM soluble guanylate cyclase (prepared according to Honicka et al., J. Mol. Med. 77, 14-23 (1999)) in 50 mM TEA, 2 mM MgCl2, 0.1% BSA (fraction V), 0.005% Brij®, pH 7.5] are initially introduced into a microplate, and 1 μl of the substance to be tested (as a serially diluted solution in DMSO) is added. The mixture is incubated at room temperature for 10 min. […] The enzyme reaction is started by adding 20 μl of substrate solution [1.25 mM guanosine 5′-triphosphate (Sigma) in 50 mM TEA, 2 mM MgCl2, 0.1% BSA (fraction V), 0.005% Brij®, pH 7.5] and measured continuously in a luminometer. The extent of the stimulation by the substance to be tested can be determined relative to the signal of the unstimulated reaction. […]

Haem-containing sGC (recombinant soluble guanylate cyclase), sequence (P20595 whole entry): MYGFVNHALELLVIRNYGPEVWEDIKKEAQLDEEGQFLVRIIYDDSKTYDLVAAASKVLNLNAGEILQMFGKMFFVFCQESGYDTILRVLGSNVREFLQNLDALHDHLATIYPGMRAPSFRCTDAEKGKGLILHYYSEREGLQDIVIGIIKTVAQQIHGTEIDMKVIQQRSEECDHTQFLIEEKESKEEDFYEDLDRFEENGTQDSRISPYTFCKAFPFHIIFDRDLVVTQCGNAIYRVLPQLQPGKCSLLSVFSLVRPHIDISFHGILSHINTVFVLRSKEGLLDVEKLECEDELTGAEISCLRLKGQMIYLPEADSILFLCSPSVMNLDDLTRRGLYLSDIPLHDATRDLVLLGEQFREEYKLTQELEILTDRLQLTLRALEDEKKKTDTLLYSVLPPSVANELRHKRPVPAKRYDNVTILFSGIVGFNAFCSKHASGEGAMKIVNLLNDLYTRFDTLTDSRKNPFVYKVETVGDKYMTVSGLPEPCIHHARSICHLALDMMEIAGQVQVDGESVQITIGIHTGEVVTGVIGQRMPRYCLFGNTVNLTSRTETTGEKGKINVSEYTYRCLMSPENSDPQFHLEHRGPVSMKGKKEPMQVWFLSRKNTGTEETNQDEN
Haem-containing sGC (recombinant soluble guanylate cyclase), sequence (P19686 whole entry partner): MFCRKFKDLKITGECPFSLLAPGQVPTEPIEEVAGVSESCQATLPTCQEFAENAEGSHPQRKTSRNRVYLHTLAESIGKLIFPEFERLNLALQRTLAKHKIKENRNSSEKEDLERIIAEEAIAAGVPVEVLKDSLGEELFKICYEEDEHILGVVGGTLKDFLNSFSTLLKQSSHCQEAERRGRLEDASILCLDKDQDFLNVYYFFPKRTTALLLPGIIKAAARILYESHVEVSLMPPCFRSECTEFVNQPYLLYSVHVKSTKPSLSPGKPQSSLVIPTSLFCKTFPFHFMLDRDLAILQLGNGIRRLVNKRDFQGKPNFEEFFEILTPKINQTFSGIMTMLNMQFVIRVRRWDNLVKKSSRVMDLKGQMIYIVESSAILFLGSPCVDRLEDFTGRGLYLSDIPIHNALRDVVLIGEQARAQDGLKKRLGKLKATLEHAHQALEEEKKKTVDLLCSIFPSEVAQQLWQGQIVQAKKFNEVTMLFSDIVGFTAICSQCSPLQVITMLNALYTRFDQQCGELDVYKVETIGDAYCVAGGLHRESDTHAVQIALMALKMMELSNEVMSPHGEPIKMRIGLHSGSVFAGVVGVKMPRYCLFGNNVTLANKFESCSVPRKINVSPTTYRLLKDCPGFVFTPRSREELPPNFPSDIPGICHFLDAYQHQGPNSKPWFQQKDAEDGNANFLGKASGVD
Haem-free sGC (recombinant soluble guanylate cyclase), sequence (P20595 whole entry): as the sequence (P20595 whole entry) above
Haem-free sGC (recombinant soluble guanylate cyclase), sequence (P19686 whole entry partner): as the sequence (P19686 whole entry partner) above
sGC in the CHO reporter cell, sequence (P20595 whole entry): as the sequence (P20595 whole entry) above
sGC in the CHO reporter cell, sequence (P19686 whole entry partner): as the sequence (P19686 whole entry partner) above
soluble guanylate cyclase (sGC), sequence (P20595 whole entry): as the sequence (P20595 whole entry) above
soluble guanylate cyclase (sGC), sequence (P19686 whole entry partner): as the sequence (P19686 whole entry partner) above

Take `C[C@H]([C@H](C(=O)Nc1cc(C(CC(=O)O)C2CC2)ccc1Cl)c1ccc(Cl)cc1)C(F)(F)F` (single isomer, unassigned; (+)) [Example 22]: in assay [1], the “MEC (minimum effective concentration), sGC-activating activity in the CHO reporter cell” value was 1.8 nM. The “Stimulation (x-fold) of recombinant sGC, haem-free sGC, basal” value in assay [2] (0.01 μM Example 22) is given as 1.2 ± 0.1 x-fold; in assay [2] (0.1 μM Example 22), 1.6 ± 0.5 x-fold; in assay [2] (1.0 μM Example 22), 4.9 ± 1.5 x-fold; in assay [2] (10 μM Example 22), 14.2 ± 2.0 x-fold. The “Stimulation (x-fold) of recombinant sGC, haem-containing sGC, +0.01 μM DEA/NO” value in assay [3] (0.01 μM Example 22) is 4.4 ± 1.3 x-fold; in assay [3] (0.1 μM Example 22) it was 3.4 ± 0.9 x-fold; in assay [3] (1.0 μM Example 22) it was 4.4 ± 1.4 x-fold; in assay [3] (10 μM Example 22), 7.8 ± 2.5 x-fold. In addition, the “Stimulation (x-fold) of recombinant sGC, haem-containing sGC, +10 μM ODQ” value in assay [3] (0.01 μM Example 22) is on record as 5.7 ± 1.6 x-fold; in assay [3] (0.1 μM Example 22), 6.1 ± 1.7 x-fold; in assay [3] (1.0 μM Example 22), 8.4 ± 2.2 x-fold; in assay [3] (10 μM Example 22), 18.3 ± 5.4 x-fold. The “Stimulation (x-fold) of recombinant sGC, haem-containing sGC, basal” value was 1.6 ± 0.3 x-fold in assay [3] (0.01 μM Example 22), 1.6 ± 0.5 x-fold in assay [3] (0.1 μM Example 22), 2.4 ± 1.0 x-fold in assay [3] (1.0 μM Example 22) and 4.9 ± 1.2 x-fold in assay [3] (10 μM Example 22). In assay [3] (haem-containing sGC, combination with DEA/NO), the “Effect of combination with the NO donor DEA/NO on sGC stimulation” value was “no synergistic effect”.
With `CC(C(=O)O)C(c1ccc(Cl)c(NC(=O)C(c2ccc(Cl)cc2)[C@@H](C)C(F)(F)F)c1)C1CC1` (stereo partly drawn) [Example 30, 3-(4-Chloro-3-{[(3R)-2-(4-chlorophenyl)-4,4,4-trifluoro-3-methylbutanoyl]amino}phenyl)-3-cyclopropyl-2-methylpropanoic acid], the “MEC (minimum effective concentration), sGC-activating activity in the CHO reporter cell” value in assay [1] is 10 nM. For the same molecule, the “MEC (minimum effective concentration), activating action at the sGC enzyme” value in assay [4] turned out to be 17 nM.
